Assay: Breath sample analysis for alcohol (BAC) in volunteers after 5 glasses of wine
Format: in vivo, human
Conditions: for BAC AFTER 30 MIN.: 30 min after 5 glasses of wine on an empty stomach together with a fifty gram dose; for BAC AFTER 30 MIN. / BAC AFTER 60 MIN / BAC AFTER 90 MIN / BAC AFTER 120 MIN / BAC AFTER 150 MIN / BAC AFTER 180 MIN / BAC AFTER 210 MIN / BAC AFTER 240 MIN: breath sample; for BAC AFTER 60 MIN: 60 min after 5 glasses of wine on an empty stomach together with a fifty gram dose; for BAC AFTER 90 MIN: 90 min after 5 glasses of wine on an empty stomach together with a fifty gram dose; for BAC AFTER 120 MIN: 120 min after 5 glasses of wine on an empty stomach together with a fifty gram dose; for BAC AFTER 150 MIN: 150 min after 5 glasses of wine on an empty stomach together with a fifty gram dose; for BAC AFTER 180 MIN: 180 min after 5 glasses of wine on an empty stomach together with a fifty gram dose; for BAC AFTER 210 MIN: 210 min after 5 glasses of wine on an empty stomach together with a fifty gram dose; for BAC AFTER 240 MIN: 240 min after 5 glasses of wine on an empty stomach together with a fifty gram dose; for Effect on the consumer's BAC as measured by the test, compared with no administration: fifty gram dose with 5 glasses of wine
Procedure: A commercially available instrument was used to analyze breath samples provided by volunteers for alcohol. TEN volunteers each consumed 5 GLASSES OF WINE on an empty stomach together with a FIFTY GRAM dose of one or more compounds of formula (I) as tabulated below. A control group of volunteers WAS not given any of the compound. The volunteers then provided _[…] breath samples for analysis at intervals of 30 minutes. THE COMPOUNDS GIVEN AND THE SAC LEVELS READ AT EACH SAMPLING ARE TABULATED BELOW

Row | SMILES | BAC AFTER 30 MIN. | BAC AFTER 60 MIN | BAC AFTER 90 MIN | BAC AFTER 120 MIN | BAC AFTER 150 MIN | BAC AFTER 180 MIN | BAC AFTER 210 MIN | BAC AFTER 240 MIN | Effect on the consumer's BAC as measured by the test, compared with no administration
1 | NC(=O)CC[C@H](N)C(=O)O [III] | 0.09% | 0.08% | 0.08% | 0.07% | 0.07% | 0.05% | 0.04% | 0.03% | helps to diminish the consumer's BAC as measured by the test more rapidly than without such administration
2 | CC(=O)O[C@H](CC(=O)[O-])C[N+](C)(C)C [compound II] | 0.10% | 0.09% | 0.08% | 0.08% | 0.07% | 0.06% | 0.04% | 0.03% | helps to diminish the consumer's BAC as measured by the test more rapidly than without such administration
